Reference: patent US6359144B1, “Combinatorial libraries of bicyclic guanidine derivatives and compounds therein” (Lion Bioscience AG, priority 1997, dated 2002)
Values joined by “and” are separate entries in the source; they are usually repeats but may differ in a detail not shown here. Identical values can stand only once.

What follows are compounds tested against T1, calmodulin (Homo sapiens, UniProt P0DP23) (assay: Calmodulin-dependent phosphodiesterase (CaMPDE) assay). Conditions: 53 individual compounds, Table 17.
T1 construct: purchased Boehringer Mannheim (calmodulin); Sigma (PDE, 5'-nucleotidase)
Format: biochemical
Procedure: An example of an assay that identifies CaM antagonists is a CaMPDE assay, such as the one whose results are shown in Examples IX to XII, below. Samples are mixed with 50 μl of assay buffer (360 mM Tris, 360 mM Imidazole, 45 mM Mg(CH3COO)2, pH 7.5) and 10 μl of CaCl2 (4.5 mM) to a final volume of 251 μl. 25 μl of calmodulin stock solution (Boehringer Mannheim; 0.01 μg/μl) is then added and the samples then sit at room temperature for 10 minutes. 14 μl of PDE (Sigma; 2 Units dissolved in 4 ml of water; stock concentration: 0.0005 Units/μl) is then added, followed by 50 μl of 5′-nucleotidase (Sigma; 100 Units dissolved in 10 ml of 10 mM Tris-HCl containing 0.5 mM Mg(CH3COO)2, pH 7.0; stock concentration: 10 Units/ml). The samples are then incubated for 10 minutes at 30° C. 50 μl of adenosine 3′,5′-cyclic monophosphate (cAMP) (20 mM in water at pH 7.0) is added, the samples incubated for 1 hour at 30° C. and then vortexed. 200 μl of trichloroacetic acid (TCA) (55% in water) is added to a 200 μl sample aliquot, which is then vortexed and centrifuged for 10 minutes. 80 μl of the resulting supernatants of each sample is transferred to a 96-well plate, with 2 wells each containing 80 μl of each sample. 80 μl of ammonium molybdate (1.1% in 1.1N H2SO4) is then added to all the wells, and the OD of each were determined at 730 nm, with the values later subtracted to the final OD reading. 16 μl of reducing agent (6 g sodium bisulfite, 0.6 g sodium sulfite and 125 mg of 1-amino-2-naphtol-4-sulfonic acid in 50 ml of water) is then added to one of each sample duplicate and 16 μl of water is added to the other duplicate. After sitting for 1 hour at room temperature, the OD of each well is determined at 730 nm. […]

| SMILES | IC50 |
| --- | --- |
| C1CCC(C[C@H]2CN=C3N2C[C@H](C2CCCCC2)N3CCC23CC4CC(CC(C4)C2)C3)CC1 [L-Cha/L-Chg/1-adamantaneacetic acid] | 16.2 µM |
| CC(C)C[C@@H]1CN2C(=NC[C@@H]2C2CCCCC2)N1CCC12CC3CC(CC(C3)C1)C2 [L-Chg/D-leu/1-adamantaneacetic acid] | 16.9 µM |
| CC(C)(C)C1CCC(CN2C3=NC[C@@H](C4CCCCC4)N3C[C@@H]2C2CCCCC2)CC1 (some centres unmarked) | 10.7 µM |
| c1ccc(CC2CN3C(=NCC3Cc3ccccc3)N2CCc2ccc(-c3ccccc3)cc2)cc1 [L-Phe/L-Phe/4-biphenylacetic acid] | 14.1 µM |
| CCN1C2=NC[C@H](Cc3ccccc3)N2C[C@@H]1Cc1c[nH]c2ccccc12 [L-Phe/L-Trp/acetic acid] | 24.8 µM |
| c1ccc(C[C@H]2CN=C3N(CCC45CC6CC(CC(C6)C4)C5)[C@@H](Cc4ccccc4)CN32)cc1 [L-Phe/L-Phe/1-adamantaneacetic acid] | 16.7 µM |
| C1CCC(C2CN3C(=NCC3C3CCCCC3)N2CCC23CC4CC(CC(C4)C2)C3)CC1 (single isomer, unassigned) [L-Chg/L-Chg/1-adamantaneacetic acid] | 19.8 µM |
| CC(C)(C)C1CCC(CN2C3=NC[C@@H](C4CCCCC4)N3C[C@H]2C2CCCCC2)CC1 (some centres unmarked) | 15.5 µM |
| c1ccc(CC2CN3C(=NCC3Cc3ccccc3)N2CCCC2CCCCC2)cc1 [L-Phe/L-Phe/cyclohexylpropionic acid] | 21.5 µM |
| C1CCC(CC2CN3C(=NCC3C3CCCCC3)N2CCC23CC4CC(CC(C4)C2)C3)CC1 (single isomer, unassigned) [D-chg/D-cha/1-adamantaneacetic acid] | 15.1 µM |
| CCN1C2=NC[C@H](Cc3ccccc3)N2C[C@H]1Cc1c[nH]c2ccccc12 [L-Phe/D-trp/acetic acid] | 19.5 µM |
| C1CCC(C[C@@H]2CN=C3N2C[C@@H](C2CCCCC2)N3CCC23CC4CC(CC(C4)C2)C3)CC1 [D-cha/D-chg/1-adamantaneacetic acid] | 17.4 µM |
| C1CCC(C2CN3C(=NCC3C3CCCCC3)N2CCC23CC4CC(CC(C4)C2)C3)CC1 (single isomer, unassigned) [D-chg/L-Chg/1-adamantaneacetic acid] | 12.9 µM |
| CC(C)(C)C1CCC(CN2C3=NC[C@H](C4CCCCC4)N3C[C@@H]2C2CCCCC2)CC1 (some centres unmarked) | 14.6 µM |
| C1CCC(CC2CN3C(=NCC3C3CCCCC3)N2CCC23CC4CC(CC(C4)C2)C3)CC1 (single isomer, unassigned) [D-chg/L-Cha/1-adamantaneacetic acid] | 4.74 µM and 6.46 µM |
| CCN1C2=NC[C@@H](C)N2C[C@@H]1Cc1ccccc1 [D-ala/L-Phe/acetic acid] | 40.1 µM |
| CC(C)(C)C1CCC(CN2C3=NC[C@H](Cc4ccccc4)N3C[C@@H]2Cc2ccccc2)CC1 (some centres unmarked) | 21.5 µM |
| CC(C)(C)C1CCC(CN2C3=NC[C@H](C4CCCCC4)N3C[C@H]2C2CCCCC2)CC1 (some centres unmarked) | 13.1 µM |
| O=[N+]([O-])c1ccc(CCN2C3=NC[C@H](Cc4ccccc4)N3C[C@@H]2Cc2ccccc2)c([N+](=O)[O-])c1 [L-Phe/L-Phe/2,4-dinitrophenylacetic acid] | 12.5 µM |
| C1CCC(CCCN2C3=NC[C@@H](C4CCCCC4)N3C[C@@H]2CC2CCCCC2)CC1 [D-chg/L-Cha/cyclohexylpropionic acid] | 15.7 µM |
| C1CCC(CC2CN3C(=NCC3C3CCCCC3)N2CCC23CC4CC(CC(C4)C2)C3)CC1 (single isomer, unassigned) [L-Chg/L-Cha/1-adamantaneacetic acid] | 13.4 µM and 25.8 µM |
| CC(C)C[C@@H]1CN2C(=NC[C@@H]2C2CCCCC2)N1CCCC1CCCCC1 [L-Chg/D-leu/cyclohexylpropionic acid] | 25.2 µM |
| C1CCC(C2CN3C(=NCC3C3CCCCC3)N2CCC23CC4CC(CC(C4)C2)C3)CC1 (single isomer, unassigned) [D-chg/D-chg/1-adamantaneacetic acid] | 21.5 µM |

Continued by falling IC50, values first:

| IC50 | SMILES |
| --- | --- |
| 10.2 µM | C1CCC(CC2CN3C(=NCC3CC3CCCCC3)N2CCC23CC4CC(CC(C4)C2)C3)CC1 (single isomer, unassigned) [D-cha/D-cha/1-adamantaneacetic acid] |
| 10.1 µM | C1CCC(C[C@@H]2CN=C3N2C[C@H](C2CCCCC2)N3CCC23CC4CC(CC(C4)C2)C3)CC1 [D-cha/L-Chg/1-adamantaneacetic acid] |
| 10.1 µM | CC(C)(C)C1CCC(CN2C3=NC[C@H](CC4CCCCC4)N3C[C@@H]2C2CCCCC2)CC1 (some centres unmarked) |
| 8.65 µM | CC(C)(C)C1CCC(CN2C3=NCC(C4CCCCC4)N3CC2CC2CCCCC2)CC1 (single isomer, unassigned) [listing 2 of 4 here] |
| 7.86 µM | C1CCC(CC2CN3C(=NCC3CC3CCCCC3)N2CCC23CC4CC(CC(C4)C2)C3)CC1 (single isomer, unassigned) [L-Cha/L-Cha/1-adamantaneacetic acid] |
| 6.98 µM | c1ccc(CC2CN3C(=NCC3Cc3ccccc3)N2CCCCC2CCCCC2)cc1 [L-Phe/L-Phe/cyclohexylbutyric acid] |
| 6.11 µM | C1CCC(C[C@H]2CN=C3N2C[C@@H](C2CCCCC2)N3CCC23CC4CC(CC(C4)C2)C3)CC1 [L-Cha/D-chg/1-adamantaneacetic acid] |
| 5.21 µM | CC(C)(C)C1CCC(CN2C3=NCC(C4CCCCC4)N3CC2CC2CCCCC2)CC1 (single isomer, unassigned) [listing 4 of 4 here] |
| 4.73 µM | CC(C)(C)C1CCC(CN2C3=NC[C@@H](CC4CCCCC4)N3C[C@H]2C2CCCCC2)CC1 (some centres unmarked) |
| 4.71 µM | CC(C)(C)C1CCC(CN2C3=NC[C@@H](CC4CCCCC4)N3C[C@@H]2C2CCCCC2)CC1 (some centres unmarked) |
| 4.61 µM | C1CCC(C2CN3C(=NCC3C3CCCCC3)N2CCC23CC4CC(CC(C4)C2)C3)CC1 (single isomer, unassigned) [L-Chg/D-chg/1-adamantaneacetic acid] |
| 4.43 µM | CC(C)(C)C1CCC(CN2C3=NC[C@@H](CC4CCCCC4)N3C[C@H]2CC2CCCCC2)CC1 (some centres unmarked) |
| 3.98 µM | CC(C)(C)C1CCC(CN2C3=NC[C@H](CC4CCCCC4)N3C[C@H]2C2CCCCC2)CC1 (some centres unmarked) |
| 3.97 µM | C1CCC(CC2CN3C(=NCC3CC3CCCCC3)N2CCC23CC4CC(CC(C4)C2)C3)CC1 (single isomer, unassigned) [D-cha/L-Cha/1-adamantaneacetic acid] |
| 3.19 µM | CC(C)(C)C1CCC(CN2C3=NCC(C4CCCCC4)N3CC2CC2CCCCC2)CC1 (single isomer, unassigned) [listing 3 of 4 here] |
| 2.83 µM | C1CCC(CC2CN3C(=NCC3C3CCCCC3)N2CCC23CC4CC(CC(C4)C2)C3)CC1 (single isomer, unassigned) [L-Chg/D-cha/1-adamantaneacetic acid] |
| 2.81 µM | CC(C)(C)C1CCC(CN2C3=NC[C@@H](CC4CCCCC4)N3C[C@@H]2CC2CCCCC2)CC1 (some centres unmarked) |
| 2.4 µM | CC(C)(C)C1CCC(CN2C3=NCC(C4CCCCC4)N3CC2CC2CCCCC2)CC1 (single isomer, unassigned) [listing 1 of 4 here] |
| 2.25 µM | C1CCC(CC2CN3C(=NCC3CC3CCCCC3)N2CCC23CC4CC(CC(C4)C2)C3)CC1 (single isomer, unassigned) [L-Cha/D-cha/1-adamantaneacetic acid] |
| 2.24 µM | CC(C)(C)C1CCC(CN2C3=NC[C@H](CC4CCCCC4)N3C[C@@H]2CC2CCCCC2)CC1 (some centres unmarked) |
| 1.89 µM | CC(C)(C)C1CCC(CN2C3=NC[C@H](CC4CCCCC4)N3C[C@H]2CC2CCCCC2)CC1 (some centres unmarked) |
